Consider 24 compounds from patent US20230339970A1, “CASEIN KINASE 1 DELTA MODULATORS” (priority 2020, published 2023).

In one experiment the target is T1, human CSNK1D (Homo sapiens, UniProt P48730).
T1 construct: expressed in transfected cells
Description: Whole Cell nBRET CSNK1D Binding Assay. The settings on record: living CHO cells stably expressing human CSNK1D tagged with nanoluciferase; NanoBret tracer 130 nM; 2 hours at 37 C.

The target of experiment [1] is T2, human recombinant GST cleaved CSNK1D (Homo sapiens, UniProt P48730).
T2 construct: GST (cleaved yes); purchased University of Dundee clone DU 19064
T2 sequence (P48730 whole entry): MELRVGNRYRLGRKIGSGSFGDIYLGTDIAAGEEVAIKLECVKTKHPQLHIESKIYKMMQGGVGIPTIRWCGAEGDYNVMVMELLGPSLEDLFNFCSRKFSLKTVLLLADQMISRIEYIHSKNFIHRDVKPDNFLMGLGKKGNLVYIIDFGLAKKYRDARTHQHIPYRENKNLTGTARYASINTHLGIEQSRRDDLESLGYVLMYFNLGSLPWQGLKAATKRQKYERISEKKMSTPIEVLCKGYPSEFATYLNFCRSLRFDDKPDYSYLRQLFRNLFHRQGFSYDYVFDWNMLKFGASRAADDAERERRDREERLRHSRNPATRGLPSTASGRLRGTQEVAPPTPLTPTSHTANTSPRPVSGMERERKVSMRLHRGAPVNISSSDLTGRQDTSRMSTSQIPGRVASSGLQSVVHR
Description: Purified Enzyme Assay (ADP-Glo CSNK1D Kinase Assay). The class given is biochemical. The settings on record: 2 nM CSNK1D; peptide substrate 150 μM; ATP 20 μM; 45 minutes at room temperature. How it is done: In this assay, CSNK1D phosphorylates a substrate peptide PLSRTL-pS-VASLPGL in the presence of ATP. […] This assay monitors CSNK1D kinase activity by measuring the amount of ADP produced in the assay.
The substrate mix is added to each well of a low volume, 384-well, white opaque plate. Test compounds were diluted in HBSS and added in a dose-response to the plate.
The total volume of each reaction is 5 ul (2 μL of substrate mix, 1 μL of diluted compounds, and 2 μL of human recombinant CSNK1D). The plates are incubated for 45 minutes at room temperature.
ADP was quantified using the ADP-Glo™ Kinase Assay. ADP-Glo Reagent (5 μL) was added to each well. After a 1 hour incubation at room temperature, Kinase Detection Reagent (10 μL) was added to each well and incubated for 30 minutes. […] The raw data from the Envision is used to calculate percent activity.

T1 sequence (P48730 whole entry): as above

A word on the IC50: it is the midpoint of a concentration-inhibition curve. In the case of `Fc1ccc(-c2nn3c(c2-c2ccnc4[nH]ncc24)OCC2(C3)CC2(F)F)cc1` (single isomer, unassigned) [Example 476, (*S)-2,2-Difluoro-2′-(4-fluorophenyl)-3′-1H-pyrazolo[3,4-b]pyridin-4-yl)-5′H,7′H-spiro[cyclopropane-1,6′-pyrazolo[5,1-b][1,3]oxazine]], the IC50 (at human CSNK1D; in experiment [1]) was 1 nM each time.

Take `CC1(C)COc2c(-c3ccnc4cn[nH]c34)c(-c3ccc(F)cn3)nn2C1` [Example 454, 2-(5-Fluoro-2-pyridyl)-6,6-dimethyl-3-(1H-pyrazolo[4,3-b]pyridin-7-yl)-5,7-dihydropyrazolo[5,1-b][1,3]oxazine]: the IC50 is 127 nM at human CSNK1D and 6 nM in experiment [1].

Regarding `COCC1(F)CCc2c(-c3cc(C(F)F)nc4[nH]ncc34)c(-c3ccc(F)cn3)nn2C1` (single isomer, unassigned) [Example 307, (*R)-6-(Difluoromethyl)-4-[6-fluoro-2-(5-fluoro-2-pyridyl)-6-(methoxymethyl)-5,7-dihydro-4H-pyrazolo[1,5-a]pyridin-3-yl]-1H-pyrazolo[3,4-b]pyridine], the concentration for half-maximal inhibition (IC50) at human CSNK1D was above 10000 nM; in experiment [1] it was 183 nM.

For `CC1(C)Cn2nc(-c3ccc(F)cn3)c(-c3cc(C4CC4)nc4[nH]ncc34)c2CO1` [Example 155, 3-(6-Cyclopropyl-1H-pyrazolo[3,4-b]pyridin-4-yl)-2-(5-fluoropyridin-2-yl)-6,6-dimethyl-6,7-dihydro-4H-pyrazolo[5,1-c][1,4]oxazine], the results for the IC50 (at human CSNK1D; in experiment [1]) were 172 nM and 8 nM, respectively.

For the compound `CC1(C)Cn2nc(-c3ccc(F)cn3)c(-c3ccnc4[nH]cc(C#N)c34)c2CO1` [Example 148, 4-(2-(5-Fluoropyridin-2-yl)-6,6-dimethyl-6,7-dihydro-4H-pyrazolo[5,1-c][1,4]oxazin-3-yl)-1H-pyrrolo[2,3-b]pyridine-3-carbonitrile], the results for the 50% inhibitory concentration (IC50) (on human CSNK1D; in experiment [1]) were 3280 nM and 59 nM, respectively.

For the compound `Cc1cc(-c2c(-c3ccc(F)cc3)nn3c2CCC3)c2cn[nH]c2n1` [Example 5, 4-(2-(4-Fluorophenyl)-5,6-dihydro-4H-pyrrolo[1,2-b]pyrazol-3-yl)-6-methyl-1H-pyrazolo[3,4-b]pyridine], the IC50 on human CSNK1D was 22 nM; in experiment [1], 1 nM.

In the case of `CC1(C)CCn2nc(-c3ccc(F)cn3)c(-c3ccnc4[nH]ncc34)c2C1` [Example 50, 4-(2-(5-Fluoropyridin-2-yl)-5,5-dimethyl-4,5,6,7-tetrahydropyrazolo[1,5-a]pyridin-3-yl)-1H-pyrazolo[3,4-b]pyridine], the figures for the IC50 (at human CSNK1D; in experiment [1]) were 28 nM and 2 nM, respectively.

Consider `Cc1cc(-c2c(-c3ccc(F)cc3)nn3c2OC[C@@H](C)C3)c2cn[nH]c2n1` (single isomer, unassigned) [Example 193, (*S)-2-(4-Fluorophenyl)-6-methyl-3-(6-methyl-1H-pyrazolo[3,4-b]pyridin-4-yl)-6,7-dihydro-5H-pyrazolo[5,1-b][1,3]oxazine], for which the figures for the IC50 (at human CSNK1D; in experiment [1]) were 5 nM and below 0.5 nM, respectively.

As to `[2H]C([2H])([2H])OC([2H])([2H])[C@@]1(F)CCc2c(-c3cc(C)nc4[nH]ncc34)c(-c3ccc(F)cn3)nn2C1` (single isomer, unassigned) [Example 313, (*R)-4-[6-[(Methoxy-d3)methyl-d2]-6-fluoro-2-(5-fluoro-2-pyridyl)-5,7-dihydro-4H-pyrazolo[1,5-a]pyridin-3-yl]-6-methyl-1H-pyrazolo[3,4-b]pyridine], the concentration for half-maximal inhibition (IC50) stood at 5120 nM on human CSNK1D and 102 nM in experiment [1].

As for `CC1(C)Cn2nc(-c3ccc(F)cn3)c(-c3ccnc(C(F)F)c3)c2CO1` [Example 129, 3-(2-(Difluoromethyl)pyridin-4-yl)-2-(5-fluoropyridin-2-yl)-6,6-dimethyl-6,7-dihydro-4H-pyrazolo[5,1-c][1,4]oxazine], the results for the concentration for half-maximal inhibition (IC50) (at human CSNK1D; in experiment [1]) were 440 nM and 36 nM, respectively.

Regarding `Cc1cc(-c2c(-c3ccc(F)cn3)nn3c2OCC(C)C3)c2cn[nH]c2n1` (stereo not drawn) [Example 197, 2-(5-Fluoropyridin-2-yl)-6-methyl-3-(6-methyl-1H-pyrazolo[3,4-b]pyridin-4-yl)-6,7-dihydro-5H-pyrazolo[5,1-b][1,3]oxazine], the IC50 on human CSNK1D was determined as 38 nM; in experiment [1] it was 3 nM.

For the compound `COC1(C)COCc2c(-c3ccnc4[nH]ncc34)c(-c3ccc(F)cn3)nn2C1` (single isomer, unassigned) [Example 486, (*R)-2-(5-Fluoropyridin-2-yl)-7-methoxy-7-methyl-3-(1H-pyrazolo[3,4-b]pyridin-4-yl)-7,8-dihydro-4H,6H-pyrazolo[5,1-c][1,4]oxazepine], the IC50 at human CSNK1D was above 10000 nM; in experiment [1], 763 nM.

For the compound `[2H]C([2H])([2H])OC[C@]1(F)CCc2c(-c3cc(C)nc4[nH]ncc34)c(-c3ccc(F)cn3)nn2C1` (single isomer, unassigned) [Example 310, (*S)-4-(6-Fluoro-2-(5-fluoropyridin-2-yl)-6-((methoxy-d3)methyl)-4,5,6,7-tetrahydropyrazolo[1,5-a]pyridin-3-yl)-6-methyl-1H-pyrazolo[3,4-b]pyridine], the half-inhibitory concentration (IC50) on human CSNK1D worked out at 34 nM; in experiment [1], 3 nM.

Turning to `Cc1n[nH]c2nc(C(F)F)cc(-c3c(-c4ccc(F)cc4)nn4c3COC(C(F)(F)F)C4)c12` (single isomer, unassigned) [Example 375, (*R)-3-[6-(Difluoromethyl)-3-methyl-1H-pyrazolo[3,4-b]pyridin-4-yl]-2-(4-fluorophenyl)-6-(trifluoromethyl)-6,7-dihydro-4H-pyrazolo[5,1-c][1,4]oxazine], the IC50 on human CSNK1D amounted to 109 nM; in experiment [1] it was 65 nM.

As for `Cc1cc(-c2c(-c3nccs3)nn3c2CCCC3)c2cn[nH]c2n1` [Example 30, 2-(3-(6-Methyl-1H-pyrazolo[3,4-b]pyridin-4-yl)-4,5,6,7-tetrahydropyrazolo[1,5-a]pyridin-2-yl)thiazole], the half-maximal inhibitory concentration (IC50) at human CSNK1D turned out to be 762 nM; in experiment [1] it was 28 nM.

As for `Cc1nc(-c2c(-c3ccc(F)cc3)nn3c2OCC(F)(F)C3)c2cn[nH]c2n1` [Example 469, 6,6-Difluoro-2-(4-fluorophenyl)-3-(6-methyl-1H-pyrazolo[3,4-d]pyrimidin-4-yl)-5,7-dihydropyrazolo[5,1-b][1,3]oxazine], the figures for the IC50 (at human CSNK1D; in experiment [1]) were 385 nM and 28 nM, respectively.

As for `[2H]C([2H])([2H])C1(C([2H])([2H])[2H])Cn2nc(-c3ccc(F)cn3)c(-c3ccnc4[nH]nc(F)c34)c2CO1` [Example 398, 3-(3-Fluoro-1H-pyrazolo[3,4-b]pyridin-4-yl)-2-(5-fluoropyridin-2-yl)-6,6-bis(methyl-d3)-6,7-dihydro-4H-pyrazolo[5,1-c][1,4]oxazine], the IC50 on human CSNK1D stood at 29 nM; in experiment [1], 3 nM.

Turning to `Fc1ccc(-c2nn3c(c2-c2ccnc4[nH]ncc24)C[C@@H]2[C@H](C3)C2(F)F)cc1` (stereo in doubt) [Example 362, (4a*R,5a*R)-5,5-Difluoro-2-(4-fluorophenyl)-3-(1H-pyrazolo[3,4-b]pyridin-4-yl)-4a,5,5a,6-tetrahydro-4H-cyclopropa[d]pyrazolo[1,5-a]pyridine], the IC50 on human CSNK1D amounted to 3 nM; in experiment [1], 1 nM.

For `CC1(C)COCc2c(-c3ccnc4[nH]ncc34)c(-c3ccc(F)cc3)nn21` [Example 120, 2-(4-Fluorophenyl)-7,7-dimethyl-3-(1H-pyrazolo[3,4-b]pyridin-4-yl)-4,6-dihydropyrazolo[5,1-c][1,4]oxazine], the values for the 50% inhibitory concentration (IC50) (at human CSNK1D; in experiment [1]) were 201 nM and 13 nM, respectively.

`Fc1ccc(-c2nn3c(c2-c2ccnc4[nH]ncc24)OCCCC3)cc1` [Example 216, 2-(4-Fluorophenyl)-3-(1H-pyrazolo[3,4-b]pyridin-4-yl)-5,6,7,8-tetrahydropyrazolo[5,1-b][1,3]oxazepane]: the IC50 was determined as 38 nM at human CSNK1D and 2 nM in experiment [1].

On to `Fc1ccc(-c2nn3c(c2-c2ccnc4[nH]nc(Cl)c24)OCC(F)(F)C3)cc1` [Example 470, 3-(3-Chloro-1H-pyrazolo[3,4-b]pyridin-4-yl)-6,6-difluoro-2-(4-fluorophenyl)-6,7-dihydro-5H-pyrazolo[5,1-b][1,3]oxazine], for which the IC50 at human CSNK1D came to 17 nM; in experiment [1] it was 1 nM.

As to `FCC1Cn2nc(-c3ccc(F)cc3)c(-c3cnc4[nH]ncc4c3)c2CO1` (stereo not drawn) [Example 103, 6-(Fluoromethyl)-2-(4-fluorophenyl)-3-(1H-pyrazolo[3,4-b]pyridin-5-yl)-6,7-dihydro-4H-pyrazolo[5,1-c][1,4]oxazine], the IC50 on human CSNK1D worked out at 15 nM.

At human CSNK1D, `CC1(CC2COC2)CCc2c(-c3ccnc4[nH]ncc34)c(-c3ccc(F)cn3)nn2C1` (single isomer, unassigned) [Example 321, (*S)-4-(2-(5-Fluoropyridin-2-yl)-6-methyl-6-(oxetan-3-ylmethyl)-4,5,6,7-tetrahydropyrazolo[1,5-a]pyridin-3-yl)-1H-pyrazolo[3,4-b]pyridine] had a half-maximal inhibitory concentration (IC50) of 37 nM.

At human CSNK1D, `Fc1ccc(-c2nn3c(c2-c2ccnc4[nH]ncc24)COC(C(F)(F)F)C3)cc1` (stereo not drawn) [Example 99, 2-(4-Fluorophenyl)-3-(1H-pyrazolo[3,4-b]pyridin-4-yl)-6-(trifluoromethyl)-6,7-dihydro-4H-pyrazolo[5,1-c][1,4]oxazine] registered an IC50 of 54 nM.
